Source: patent US9732051B2, “Isothiazoline compounds for combating invertebrate pests” (BASF SE, priority 2011, dated 2017)

Tests used:
Type in all cases: in vivo
Myzus persicae = assay: Green peach aphid systemic test, artificial diet in 96-well plates; conditions: 72 h, 3 days, in comparison with untreated controls
Source text: B.4 Green Peach Aphid (Myzus persicae)
For evaluating control of green peach aphid (Myzus persicae) through systemic means the test unit consisted of 96-well-microtiter plates containing liquid artificial diet under an artificial membrane.
The compounds were formulated using a solution containing 75% v/v water and 25% v/v DMSO. Different concentrations of formulated compounds were pipetted into the aphid diet, using a custom built pipetter, at two replications.
After application, 5-8 adult aphids were placed on the artificial membrane inside the microtiter plate wells. The aphids were then allowed to suck on the treated aphid diet and incubated at about 23±1° C. and about 50±5% relative humidity for 3 days. Aphid mortality and fecundity was then visually assessed.

Spodoptera eridania = assay: Southern armyworm spray test on lima bean plants; conditions: 96 h, 4 days after treatment, in comparison with untreated controls
Protocol: B.9 Southern Armyworm (Spodoptera eridania)
(§1) The active compounds were formulated in cyclohexanone as a 10,000 ppm solution supplied in tubes. The tubes were inserted into an automated electrostatic sprayer equipped with an atomizing nozzle and they served as stock solutions for which lower dilutions were made in 50% acetone:50% water (v/v). A nonionic surfactant (Kinetic®) was included in the solution at a volume of 0.01% (v/v).
Lima bean plants (variety Sieva) were grown 2 plants to a pot and selected for treatment at the 1st true leaf stage. Test solutions were sprayed onto the foliage by an automated electrostatic plant sprayer equipped with an atomizing spray nozzle. The plants were dried in the sprayer fume hood and then removed from the sprayer. Each pot was placed into perforated plastic bags with a zip closure. About 10 to 11 armyworm larvae were placed into the bag and the bags zipped closed. Test plants were maintained in a growth room at about 25° C. and about 20-40% relative humidity for 4 days, avoiding direct exposure to fluorescent light (24 hour photoperiod) to prevent trapping of heat inside the bags. Mortality and reduced feeding were assessed 4 days after treatment, compared to untreated control plants.

Nephotettix virescens = assay: Rice green leafhopper spray test on rice seedlings; conditions: after 72 hours, in comparison with untreated controls
Protocol: B.7 Rice Green Leafhopper (Nephotettix virescens)
Rice seedlings were cleaned and washed 24 hours before spraying. The active compounds were formulated in 50:50 acetone:water (vol:vol), and 0.1% vol/vol surfactant (EL 620) was added. Potted rice seedlings were sprayed with 5 ml test solution, air dried, placed in cages and inoculated with 10 adults. Treated rice plants were kept at about 28-29° C. and relative humidity of about 50-60%. Percent mortality was recorded after 72 hours.

Anthonomus grandis = assay: Boll weevil microtiter plate diet test, egg and larval mortality; conditions: 120 h, 5 days, in comparison with untreated controls
Protocol: B.12 Boll Weevil (Anthonomus grandis)
For evaluating control of boll weevil (Anthonomusgrandis) the test unit consisted of 24-well-microtiter plates containing an insect diet and 20-30 A. grandis eggs.
(§2) The compounds were formulated using a solution containing 75% v/v water and 25% v/v DMSO. Different concentrations of formulated compounds were sprayed onto the insect diet at 20 μl, using a custom built micro atomizer, at two replications.
After application, microtiter plates were incubated at about 23±1° C. and about 50±5% relative humidity for 5 days. Egg and larval mortality was then visually assessed.

Ceratitis capitata = assay: Mediterranean fruitfly microtiter plate diet test, egg and larval mortality; conditions: 120 h, 5 days, in comparison with untreated controls
Protocol: B.5 Mediterranean Fruitfly (Ceratitis capitata)
For evaluating control of Mediterranean fruitfly (Ceratitis capitata) the test unit consisted of microtiter plates containing an insect diet and 50-80 C. capitata eggs.
The compounds were formulated using a solution containing 75% v/v water and 25% v/v DMSO. Different concentrations of formulated compounds were sprayed onto the insect diet at 5 μl, using a custom built micro atomizer, at two replications.
(§3) After application, microtiter plates were incubated at about 28±1° C. and about 80±5% relative humidity for 5 days. Egg and larval mortality was then visually assessed.

Heliothis virescens = assay: Tobacco budworm microtiter plate diet test, egg and larval mortality; conditions: 120 h, 5 days, in comparison with untreated controls
Protocol: B.11 Tobacco Budworm (Heliothis virescens) I
as §2, with “For evaluating control of tobacco budworm (Heliothis virescens) the test unit consisted of 96-well-microtiter plates containing an insect diet and 15-25 H. virescens eggs. The” for “The”, “10” for “20”
as §3

Dichromothrips corbetti = assay: Orchid thrips floral-immersion test; conditions: 96 h, after 4 days, in comparison with untreated controls
Protocol: B.6 Orchid Thrips (Dichromothrips corbetti)
Dichromothrips corbetti adults used for bioassay were obtained from a colony maintained continuously under laboratory conditions. For testing purposes, the test compound was diluted to a concentration of 500 ppm (wt compound: vol diluent) in a 1:1 mixture of acetone:water (vol:vol), plus 0.01% vol/vol Kinetic® surfactant.
Thrips potency of each compound was evaluated by using a floral-immersion technique. Plastic petri dishes were used as test arenas. All petals of individual, intact orchid flowers were dipped into treatment solution and allowed to dry. Treated flowers were placed into individual petri dishes along with 10-15 adult thrips. The petri dishes were then covered with lids. All test arenas were held under continuous light and a temperature of about 28° C. for duration of the assay. After 4 days, the numbers of live thrips were counted on each flower, and along inner walls of each petri dish. The level of thrips mortality was extrapolated from pre-treatment thrips numbers.

Plutella xylostella = assay: Diamond back moth leaf dip test; conditions: foliar, recorded 24, 72 and 120 hours after treatment, in comparison with untreated controls
Protocol: B.3 Diamond Back Moth (Plutella xylostella)
Leaves of Chinese cabbage were dipped in test solution and air-dried. Treated leaves were placed in petri dished lined with moist filter paper. Mortality was recorded 24, 72, and 120 hours after treatment.

Megoura viciae = assay: Vetch aphid leaf disk test in 24-well plates; conditions: foliar, 120 h, 5 days, in comparison with untreated controls
Protocol: B.10 Vetch Aphid (Megoura viciae)
For evaluating control of vetch aphid (Megoura viciae) through contact or systemic means the test unit consisted of 24-well-microtiter plates containing broad bean leaf disks.
The compounds were formulated using a solution containing 75% v/v water and 25% v/v DMSO. Different concentrations of formulated compounds were sprayed onto the leaf disks at 2.5 μl, using a custom built micro atomizer, at two replications.
After application, the leaf disks were air-dried and 5-8 adult aphids placed on the leaf disks inside the microtiter plate wells. The aphids were then allowed to suck on the treated leaf disks and incubated at about 23±1° C. and about 50±5% relative humidity for 5 days. Aphid mortality and fecundity was then visually assessed.

Tetranychus kanzawai = assay: Red spider mite spray test on cowpea beans; conditions: after 72 h, in comparison with untreated controls
Protocol: B.14 Red Spider Mite (Tetranychus kanzawai)
The active compound was dissolved at the desired concentration in a mixture of 1:1 (v/v) distilled water:acetone. A surfactant (Alkamuls® EL 620) was added at the rate of 0.1% (v/v).
Potted cowpea beans of 7-10 days of age were cleaned with tap water and sprayed with 5 ml of the test solution using air driven hand atomizer. The treated plants were allowed to air dry and afterwards inculated with 20 or more mites by clipping a cassava leaf section with known mite population. Treated plants were placed inside a holding room at about 25-27° C. and about 50-60% relatice humidity.
Mortality was determined by counting the live mites 72 HAT. Percent mortality was assessed after 72 h.

Aphis craccivora = assay: Cowpea aphid spray test on potted cowpea plants; conditions: assessed after 24, 72 and 120 hours, in comparison with untreated controls
Protocol: B.2 Cowpea Aphid (Aphis craccivora)
Potted cowpea plants colonized with approximately 100-150 aphids of various stages were sprayed after the pest population had been recorded. Population reduction was assessed after 24, 72, and 120 hours.

[1] = system: Leptinotarsa decemlineata; assay: Colorado potato beetle spray test on eggplant foliage; conditions: foliar, 96 h, 4 days after treatment, in comparison with untreated controls
Protocol: B.13 Colorado Potato Beetle (Leptinotarsa decemlineata)
as §1
Eggplants were grown 2 plants to a pot and were selected for treatment at the 1st true leaf stage. Test solutions were sprayed onto the foliage by an automated electrostatic plant sprayer equipped with an atomizing spray nozzle. The plants were dried in the sprayer fume hood and then removed from the sprayer. The treated foliage was then cut and removed from the pot and placed in a 5-inch Petri dish lined with moistened filter paper. Five beetle larvae were introduced into each Petri dish and the dish was covered by a Petri dish lid. Petri dishes were maintained in a growth room at 25° C. and 20-40% relative humidity for 4 days, avoiding direct exposure to fluorescent light (24 hour photoperiod) to prevent trapping of heat inside the dishes. Mortality and reduced feeding were assessed 4 days after treatment, compared to untreated control plants.

CCSCC(=O)N(CC)Cc1ccc(C2=NSC(c3cc(Cl)cc(Cl)c3)(C(F)(F)F)C2)cc1C (stereo not drawn) [Compound 3-3, N-[[4-[5-(3,5-Dichlorophenyl)-5-(trifluoromethyl)-4H-isothiazol-3-yl]-2-methyl-phenyl]methyl]-N-ethyl-2-ethylsulfanyl-acetamide]
≥ 75%: mortality at 2500 ppm (Myzus persicae) | mortality at 1 ppm (Spodoptera eridania) | mortality at 500 ppm (Nephotettix virescens) | mortality at 2500 ppm (Anthonomus grandis) | mortality at 2500 ppm (Ceratitis capitata) | mortality at 2500 ppm (Heliothis virescens) | mortality at 500 ppm (Dichromothrips corbetti) | mortality at 500 ppm (Plutella xylostella)

Cc1cc(C2=NSC(c3cc(Cl)cc(Cl)c3)(C(F)(F)F)C2F)ccc1C(=O)NCC(=O)NCC(F)(F)F (stereo not drawn) [Compound 5-1, 4-[5-(3,5-dichlorophenyl)-4-fluoro-5-(trifluoromethyl)-4H-isothiazol-3-yl]-2-methyl-N-[2-oxo-2-(2,2,2-trifluoroethylamino)ethyl]benzamide]
≥ 75%: mortality at 2500 ppm (Myzus persicae) | mortality at 2500 ppm (Megoura viciae) | mortality at 500 ppm (Tetranychus kanzawai) | mortality at 2500 ppm (Anthonomus grandis) | mortality at 2500 ppm (Ceratitis capitata) | mortality at 2500 ppm (Heliothis virescens) | mortality at 500 ppm (Dichromothrips corbetti) | mortality at 500 ppm (Plutella xylostella)

CCNC(=O)N/N=C/c1ccc(C2=NSC(c3cc(Cl)cc(Cl)c3)(C(F)(F)F)C2)cc1C (stereo not drawn) [Compound 1-5, 1-[(E)-[4-[5-(3,5-dichlorophenyl)-5-(trifluoromethyl)-4H-isothiazol-3-yl]-2-methyl-phenyl]methyleneamino]-3-ethyl-urea]
≥ 75%: mortality at 2500 ppm (Myzus persicae) | mortality at 1 ppm (Spodoptera eridania) | mortality at 2500 ppm (Megoura viciae) | mortality at 2500 ppm (Anthonomus grandis) | mortality at 2500 ppm (Ceratitis capitata) | mortality at 2500 ppm (Heliothis virescens) | mortality at 500 ppm (Dichromothrips corbetti) | mortality at 500 ppm (Plutella xylostella)

Cc1cc(C2=NSC(c3cc(Cl)cc(Cl)c3)(C(F)(F)F)C2)ccc1C(=O)NCC(=O)NCC(F)(F)F (stereo not drawn) [Compound 2-1, 4-[5-(3,5-Dichlorophenyl)-5-trifluoromethyl-4H-isothiazol-3-yl]-2-methyl-N-[2-oxo-2-(2,2,2-trifluoroethylamino)ethyl]benzamide]
≥ 75%: mortality at 2500 ppm (Myzus persicae) | mortality at 1 ppm (Spodoptera eridania) | mortality at 500 ppm (Nephotettix virescens) | mortality at 2500 ppm (Megoura viciae) | mortality at 500 ppm (Tetranychus kanzawai) | mortality at 2500 ppm (Anthonomus grandis) | mortality at 2500 ppm (Ceratitis capitata) | mortality at 500 ppm (Aphis craccivora) | mortality at 2500 ppm (Heliothis virescens) | mortality at 500 ppm (Dichromothrips corbetti) | mortality at 1 ppm [1] | mortality at 500 ppm (Plutella xylostella)
